For one compound, IC50 value results are on record in patent US20220310273A1, “SYSTEM FOR EVALUATING SENSITIVITY TO ANTI-CANCER AGENT AND A COMPUTER READABLE MEDIUM STORING PROGRAMS EXECUTING AN EVALUATING METHOD” (MBD Co., Ltd., priority 2021, published 2022).

For this experiment, the system named is cancer cells of biological individuals diagnosed with breast cancer. Description: evaluation of sensitivity to doxorubicin (DOX) in patient tissues, using cell colony growth rate and IC50 value. The following applies: patient tissue #2 (breast cancer).

Structures are written as SMILES.

As to `COc1cccc2c1C(=O)c1c(O)c3c(c(O)c1C2=O)C[C@@](O)(C(=O)CO)C[C@@H]3O[C@H]1C[C@H](N)[C@H](O)[C@H](C)O1` [doxorubicin], the IC50 value result is listed as “low”.
